From patent US12384740B2, “Cationic lipids and transfection methods” (Factor Bioscience Inc., priority 2019, dated 2025)

Key:
Assay type in all cases: cell-based
[1] = test system: neonatal human epidermal keratinocytes (HEKn); test: Transfection of HEKn with GFP-encoding RNA complexed with lipid, mean fluorescence intensity per cell (Table 1); conditions: 20,000 HEKn per well, 24-well plate; 100 ng in vitro transcribed GFP RNA; 24 hours after transfection
Protocol: Stock solutions of lipid in ethanol were prepared at concentrations of between 5 mg/mL and 20 mg/mL and stored at −20° C. To perform transfections, nucleic acid was first diluted in DMEM (1 μg of nucleic acid in 50 μL of DMEM), then the desired amount of lipid stock solution was added. After adding the lipid, the solution was mixed thoroughly, and complexes were allowed to form for between about 5 minutes and about 25 minutes before adding to cells. For the experiments depicted in FIG. 1 through FIG. 6, the lipid was used without the acetone purification described in Example 5. Table 1 depicts the results of an experiment in which 20,000 neonatal human epidermal keratinocytes (HEKn) per well of a 24-well plate were transfected with 100 ng of in vitro transcribed RNA encoding green fluorescent protein (GFP) complexed with the indicated lipids. Fluorescence was measured 24 hours after transfection. Numbers indicate mean fluorescence intensity per cell (a.u.).

[2] = test system: primary human epidermal keratinocytes; test: Transfection of primary human epidermal keratinocytes with GFP RNA in 100% FBS (FIG. 1, 2, 7)
Protocol: (§1) FIG. 1 depicts primary human epidermal keratinocytes cultured in a 24-well plate, and transfected with 400 ng per well of in vitro transcribed RNA encoding green fluorescent protein (GFP) complexed with the indicated lipid and with the indicated mass ratio of lipid to RNA. Complexation was performed in DMEM, and transfections were performed in 100% fetal bovine serum (FBS). Images were taken eight hours following transfection.
FIG. 2 depicts the experiment of FIG. 1, with fluorescence measured at the indicated time points following transfection using DHDLinS.
FIG. 3 depicts the results of an experiment conducted as in FIG. 1, but with the indicated amounts of RNA (in nanograms) and the indicated lipid-to-RNA mass ratios (in micrograms of lipid per microgram of RNA). Images were taken 16 hours following transfection. As shown in the figure, all RNA amounts and lipid-to-RNA mass ratios tested yielded a fluorescent signal.
FIG. 7 depicts the results of an experiment conducted as in FIG. 3, but with DHDLinS purified by extraction with acetone as described in Example 5.
(§2) Stock solutions of lipid in ethanol were prepared at concentrations of between 5 mg/mL and 20 mg/mL and stored at −20° C. To perform transfections, nucleic acid was first diluted in DMEM (1 μg of nucleic acid in 50 μL of DMEM), then the desired amount of lipid stock solution was added. After adding the lipid, the solution was mixed thoroughly, and complexes were allowed to form for between about 5 minutes and about 25 minutes before adding to cells. For the experiments depicted in FIG. 1 through FIG. 6, the lipid was used without the acetone purification described in Example 5.

[3] = test system: human peripheral blood mononuclear cells (hPBMCs); test: Transfection of hPBMCs with GFP RNA (FIG. 4); conditions: 400 ng GFP RNA; 100% FBS; images 16 hours following transfection; both lipid-to-RNA mass ratios tested
Protocol: as §1
FIG. 4 depicts the results of an experiment conducted as in FIG. 1, but with human peripheral blood mononuclear cells (hPBMCs) instead of keratinocytes. Images were taken 16 hours following transfection. “LF3000” indicates cells transfected with LIPOFECTAMINE 3000 (cationic liposome formulation) commercial transfection reagent. “Neg.” indicates un-transfected cells.
as §2

[4] = test system: primary human adult dermal fibroblasts; test: Transfection of primary human adult dermal fibroblasts with GFP RNA (FIG. 6A/6B); conditions: 400 ng GFP RNA; 100% FBS; images 16 hours following transfection; both lipid-to-RNA mass ratios tested
Protocol: as §1
FIG. 6A depicts the results of an experiment conducted as in FIG. 4, but with primary human adult dermal fibroblasts instead of hPBMCs. Images were taken 16 hours following transfection.
FIG. 6B depicts the experiment of FIG. 6A, shown at higher magnification.
as §2

[5] = test system: confluent layer of primary human epidermal keratinocytes; test: Transfection of a confluent layer of primary human epidermal keratinocytes with GFP RNA (FIG. 5A/5B); conditions: 400 ng GFP RNA; 100% FBS; images 24 hours following transfection; both lipid-to-RNA mass ratios tested
Protocol: as §1
FIG. 5A depicts the results of an experiment conducted as in FIG. 4, but with a confluent layer of primary human epidermal keratinocytes instead of hPBMCs. Images were taken 24 hours following transfection.
FIG. 5B depicts the experiment of FIG. 5A, shown at higher magnification.
as §2

[6] = time course of FIG. 1 experiment, 400 ng GFP RNA, 100% FBS

N^1,N^2-dilinoleyl-N^1,N^2-di-(2-hydroxy-3-aminopropyl)-diaminoethane [Formula I (n = 2)]
Fluorescence Intensity (mean fluorescence intensity per cell) [1]: 6623 a.u.

CCCCC/C=C\C/C=C\CCCCCCCCN(CCCCCCCCCCN(CCCCCCCC/C=C\C/C=C\CCCCC)CC(O)CN)CC(O)CN (centres unmarked) [Formula I (n = 10), N^1,N^10-dilinoleyl-N^1,N^10-di-(2-hydroxy-3-aminopropyl)-diaminodecane]
Fluorescence Intensity (mean fluorescence intensity per cell) [1]: 7842 a.u.

CCCCC/C=C\C/C=C\CCCCCCCCN(CCCCCCCCCCCCN(CCCCCCCC/C=C\C/C=C\CCCCC)CC(O)CN)CC(O)CN (centres unmarked) [Formula I (n = 12), N^1,N^12-dilinoleyl-N,N^12-di-(2-hydroxy-3-aminopropyl)-diaminododecane]
Fluorescence Intensity (mean fluorescence intensity per cell) [1]: 5631 a.u.

CCCCC/C=C\C/C=C\CCCCCCCCN(CCCCCN(CCCCCCCC/C=C\C/C=C\CCCCC)CC(O)CN)CC(O)CN (centres unmarked) [Formula I (n = 5), N^1,N^5-dilinoleyl-N^1,N^5-di-(2-hydroxy-3-aminopropyl)-diaminopentane]
Fluorescence Intensity (mean fluorescence intensity per cell) [1]: 7554 a.u.

CCCCC/C=C\C/C=C\CCCCCCCCN(CCCCN(CCCCCCCC/C=C\C/C=C\CCCCC)CC(O)CN)CC(O)CN (centres unmarked) [DHDLinS, N^1,N^4-dilinoleyl-N^1,N^4-di-(2-hydroxy-3-aminopropyl)-diaminobutane]
Fluorescence Intensity (mean fluorescence intensity per cell) [1]: 8009 a.u. | Transfection efficiency (GFP fluorescence images) ([2]; 400 ng GFP RNA per well, transfection in 100% FBS, images eight hours following transfection, lipid without acetone purification): transfected with high efficiency | Change of fluorescence signal with lipid-to-RNA mass ratio ([2]; DHDLinS purified by extraction with acetone, lipid-to-RNA mass ratios greater than 2 μg/μg, images 16 hours following transfection): minimal increase in fluorescence signal | Signal intensity and number of fluorescent cells over time [2, 6]: increased for several hours following transfection | Time of first detection of fluorescent signal following transfection [2, 6]: detected one hour following transfection | Transfection of hPBMCs (GFP fluorescence images) [3]: effectively transfected | Transfection of dermal fibroblasts (GFP fluorescence images) [4]: effectively transfected | Transfection of confluent keratinocytes (GFP fluorescence images) [5]: effectively transfected

CCCCC/C=C\C/C=C\CCCCCCCCN(CCCCCCCCN(CCCCCCCC/C=C\C/C=C\CCCCC)CC(O)CN)CC(O)CN (centres unmarked) [Formula I (n = 8), N^1,N^8-dilinoleyl-N^1,N^8-di-(2-hydroxy-3-aminopropyl)-diaminooctane]
Fluorescence Intensity (mean fluorescence intensity per cell) [1]: 9170 a.u.

CCCCC/C=C\C/C=C\CCCCCCCCN(CCCCCCN(CCCCCCCC/C=C\C/C=C\CCCCC)CC(O)CN)CC(O)CN (centres unmarked) [Formula I (n = 6), N^1,N^6-dilinoleyl-N^1,N^6-di-(2-hydroxy-3-aminopropyl)-diaminohexane]
Fluorescence Intensity (mean fluorescence intensity per cell) [1]: 8596 a.u.
